Source: patent US4596873A, “1,4,5,6,7,8-Hexahydro-2-alkyl-4-aryl-5-oxo-1,7-naphthyridine-3-carboxyl ic acid aromatic esters and pharmaceutically acceptable acid addition salts thereof useful as antihypertensive agents” (American Home Products Corporation, priority 1985, dated 1986)

Tests used:
[1] = tested on: isolated paced intact rabbit atria; experiment: negative inotropic (cardiac depressant) effect in isolated paced intact rabbit atria; type: cell-based; details: for IC25: Oryctolagus cuniculus, read-out: IC25 (concentration which produces 25% inhibition of isometric force)
Protocol: The potential for detrimental cardiac depressant (negative inotropic) effects of the compounds of this invention was assessed in isolated paced intact rabbit atria. Left and right atria (with nodal tissue excised) were suspended vertically in a jacketed (30° C.) organ bath containing 50 ml of PSS and aerated with 95% O2 /5% CO2. Muscles (N=5-9/compound) were stimulated at a frequency of 3 Hz with a WPI stimulator for a 60 minute equilibration period. Changes in isometric force were recorded as described for the aortic smooth muscle experiments,supra. Following equilibration, the test compound (or as a control, the ethanol vehicle) was added to the organ bath in a cumulative manner from doses ranging from 10^-9 M to 10^-5 M (10^-5 M was the maximum dose which could be attained due to the depressant effect of ethanol) and effects on developed isometric force were determined.
(§1) The following examples illustrate the preparation of a representative number of compounds of this invention. After each example, and Ca^+2 antagonist activity of the compound is presented in terms of percent relaxation of aortic tissue (P.R.) at 10^-5 M concentration. […] Inhibition of superprecipitation (Antag. of Actin-Myosin interaction) is expressed as percent inhibition (mean±standard error of the mean for at least 3 separate experiments) at a compound concentration. In the same manner, inhibition of myosin light chain phosphorylation (Antag. of MLCP) is expressed as a percent inhibition at a compound concentration. Similarly, the antihypertensive activity is reported in terms of millimeters mercury (mmHg) systolic blood pressure (B.P.) reduction at the stated time post 50 mg/kg oral dosing or other dosing as indicated.

[2] = tested on: spontaneously hypertensive rats; experiment: decrease in systolic blood pressure of spontaneously hypertensive rats; type: in vivo, rat
[3] = tested on: arterial actin-myosin interactions; experiment: inhibition of superprecipitation (antagonism of arterial actin-myosin interaction); type: biochemical; details: six minute time-point, mean±SEM
Protocol: (§2) The data reported herein was obtained at a six minute time-point rather than the 1.5, 5 and 12 minute time points indicated in the superprecipitation assay of the Silver et al. paper.
as §1

[4] = tested on: Ca^+2 -calmodulin dependent myosin light chain phosphorylation; experiment: inhibition of Ca^+2-calmodulin dependent myosin light chain phosphorylation (MLCP); type: biochemical
Protocol: as §2, §1

[5] = 3 Hz, cumulative 10^-9 M to 10^-5 M

SMILES	systolic blood pressure (B.P.) reduction ([2]; 25 mg/kg, 1.5 hours) [mmHg]	systolic blood pressure (B.P.) reduction ([2]; 25 mg/kg, 4 hours) [mmHg]	inhibition of superprecipitation (Antag. of Actin-Myosin) ([3]; 50 μM) [%]	inhibition of superprecipitation (Antag. of Actin-Myosin) ([3]; 100 μM) [%]	inhibition of myosin light chain phosphorylation (Antag. of MLCP) ([4]; 50 μM) [%]	inhibition of myosin light chain phosphorylation (Antag. of MLCP) ([4]; 100 μM) [%]	cardiac depression / negative inotropism (in words) [1]	IC25 [1, 5] [nM]	inhibition of superprecipitation (Antag. of Actin-Myosin) ([3]; 25 μM) [%]	inhibition of myosin light chain phosphorylation (Antag. of MLCP) ([4]; 25 μM) [%]	further results
CC1=C(C(=O)OCCOc2ccccc2)C(c2c(F)c(F)c(F)c(F)c2F)C2=C(CNCC2=O)N1 (single isomer, unassigned; (+)) [Example 4, (+)-1,4,5,6,7,8-Hexahydro-2-methyl-5-oxo-4-(pentafluorophenyl)-1,7-naphthyridine-3-carboxylic acid 2-phenoxyethyl ester]	-58	-78	38	71	37	67					IC25 (concentration which produces 25% inhibition of isometric force) [1, 5]: 800 nM
CCOC(=O)C1=C(C)NC(C)=C(C(=O)OC)C1c1cccc([N+](=O)[O-])c1 (stereo not drawn) [nitrendipine, reference compound]							direct negative inotropism				
COc1ccc(CCN(C)CCCC(C#N)(c2ccc(OC)c(OC)c2)C(C)C)cc1OC (stereo not drawn) [Verapamil, reference compound]							direct negative inotropism				
COC(COC(=O)C1=C(C)NC2=C(C(=O)CNC2)C1c1c(F)c(F)c(F)c(F)c1F)c1ccccc1 (stereo not drawn) [Example 5, 1,4,5,6,7,8-Hexahydro-2-methyl-5-oxo-4-(pentafluorophenyl)-1,7-naphthryridine-3-carboxylic acid 2-methoxy-2-phenylethyl ester]	-60	-72	50±5	75±4	48±2	70±3		1000	20±5	21±3	systolic blood pressure (B.P.) reduction ([2]; 5 mg/kg, 1.5 hours): -44 mmHg; systolic blood pressure (B.P.) reduction ([2]; 5 mg/kg, 4 hours): -38 mmHg; systolic blood pressure (B.P.) reduction ([2]; 10 mg/kg, 1.5 hours): -41 mmHg; systolic blood pressure (B.P.) reduction ([2]; 10 mg/kg, 4 hours): -68 mmHg
CCOC(=O)C1=C(C)NC(C)=C(C(=O)OC)C1c1cccc(Cl)c1Cl (stereo not drawn) [felodipine]							direct negative inotropism	800			
CO[C@H](COC(=O)C1=C(C)NC2=C(C(=O)CNC2)C1c1c(F)c(F)c(F)c(F)c1F)c1ccccc1 (stereo partly drawn) [Example 7, 1,4,5,6,7,8-Hexahydro-2-methyl-5-oxo-4-(pentafluorophenyl)-1,7-naphthyridine-3-carboxylic acid (S)-2-methoxy-2-phenylethyl ester]			67	80	59	74		6500			systolic blood pressure (B.P.) reduction ([2]; 10 mg/kg, 1.5 hours): -51 mmHg; systolic blood pressure (B.P.) reduction ([2]; 10 mg/kg, 4 hours): -54 mmHg
CC1=C(C(=O)OCC(C)(C)Oc2ccccc2)C(c2c(F)c(F)c(F)c(F)c2F)C2=C(CNCC2=O)N1.Cl (stereo not drawn) [Example 20, 1,4,5,6,7,8-Hexahydro-2-methyl-5-oxo-4-(pentafluorophenyl)-1,7-naphthyridine-3-carboxylic acid 2-methyl-2-phenoxypropyl ester, hydrochloride]	-64	-41		67		62					
COC(=O)C1=C(C)NC(C)=C(C(=O)OC)C1c1ccccc1[N+](=O)[O-] [nifedipine, reference compound]							direct negative inotropism				
CC1=C(C(=O)OCCc2ccccc2)C(c2c(F)c(F)c(F)c(F)c2F)C2=C(CNCC2=O)N1 (stereo not drawn) [Example 18, 1,4,5,6,7,8-Hexahydro-2-methyl-5-oxo-4-(pentafluorophenyl)-1,7-naphthyridine-3-carboxylic acid 2-phenylethyl ester]			65	78±2	64	77±3			42	35	systolic blood pressure (B.P.) reduction ([2]; 10 mg/kg, 1.5 hours): -27 mmHg; systolic blood pressure (B.P.) reduction ([2]; 10 mg/kg, 4 hours): -24 mmHg
CC1=C(C(=O)OCCOc2cccc(Cl)c2Cl)C(c2c(F)c(F)c(F)c(F)c2F)C2=C(CNCC2=O)N1 (stereo not drawn) [Example 22, 1,4,5,6,7,8-Hexahydro-2-methyl-5-oxo-4-(pentafluorophenyl)-1,7-naphthyridine-3-carboxylic acid 2-(2,3-dichlorophenoxy)ethyl ester]	-37	-52	75±4	78±1	73±1.5	74±2		1000	54±3	54±2.5	inhibition of superprecipitation (Antag. of Actin-Myosin) ([3]; 10 μM): 30±3%; inhibition of myosin light chain phosphorylation (Antag. of MLCP) ([4]; 10 μM): 25%
COC(COC(=O)C1=C(C)NC2=C(C(=O)CNC2)C1c1cccc(Cl)c1Cl)c1ccccc1 (stereo not drawn) [Example 1, 4-(2,3-Dichlorophenyl)-1,4,5,6,7,8-hexahydro-2-methyl-5-oxo-1,7-naphthyridine-3-carboxylic acid 2-methoxy-2-phenylethyl ester]			75±3	83±3	66	76±2			43±2	38±3	systolic blood pressure (B.P.) reduction ([2]; 50 mg/kg oral, 1.5 hours): -53 mmHg; systolic blood pressure (B.P.) reduction ([2]; 50 mg/kg oral, 4 hours): -30 mmHg
